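Values below derive from 48-hour exposures of cells grown in 96-well plates, with endpoints linearly interpolated between the two concentrations bracketing the appropriate inhibition level. At the GI50, growth is halved.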 Activity calls are given as the source filed them. No stated cut-off is given here; in the data, active = GI50 up to about 1.1 µM and inactive = higher.
Key:
Assay in all cases: NCI tumour cell line growth inhibition, 48 h
SK-MEL-5 = tested on: SK-MEL-5
KM12 = tested on: KM12
A549 = tested on: A549
U-251 = tested on: U-251
SNB-19 = tested on: SNB-19
HOP-62 = tested on: HOP-62
RXF 393 = tested on: RXF 393
SK-OV-3 = tested on: SK-OV-3
MCF7 = tested on: MCF7
K562 = tested on: K562
OVCAR-3 = tested on: OVCAR-3
RPMI-8226 = tested on: RPMI-8226
NCI-H226 = tested on: NCI-H226
NCI/ADR-RES = tested on: NCI/ADR-RES
786-0 = tested on: 786-0
M14 = tested on: M14
EKVX = tested on: EKVX
OVCAR-5 = tested on: OVCAR-5
MOLT-4 = tested on: MOLT-4
SF-539 = tested on: SF-539

Measured: GI50

O=S(=O)(Nc1nccs1)c1ccc([As](=O)(O)O)cc1
inactive: SK-MEL-5 > 100 µM | KM12 > 100 µM | A549 > 100 µM | U-251 > 100 µM | SNB-19 > 100 µM | HOP-62 > 100 µM | RXF 393 > 100 µM | SK-OV-3 > 100 µM | MCF7 > 100 µM | K562 > 100 µM | OVCAR-3 > 100 µM | RPMI-8226 > 100 µM | NCI-H226 > 100 µM | NCI/ADR-RES > 100 µM | 786-0 > 100 µM | M14 > 100 µM | EKVX > 100 µM | OVCAR-5 > 100 µM | MOLT-4 > 100 µM

CN1CCC/C1=C1\C(=O)c2cccn2C1=O
inactive: SK-MEL-5 > 100 µM | KM12 > 100 µM | A549 > 100 µM | U-251 > 100 µM | SNB-19 > 100 µM | HOP-62 > 100 µM | RXF 393 > 100 µM | SK-OV-3 > 100 µM | MCF7 > 100 µM | K562 > 100 µM | OVCAR-3 > 100 µM | RPMI-8226 > 100 µM | NCI-H226 > 100 µM | NCI/ADR-RES > 100 µM | 786-0 > 100 µM | M14 > 100 µM | EKVX > 100 µM | OVCAR-5 > 100 µM | MOLT-4 > 100 µM

N=C(N)C1CN(CCc2c[nH]c3ccccc23)C(=O)NC1=O (stereo not given)
inactive: SK-MEL-5 > 100 µM | A549 > 100 µM | U-251 > 100 µM | SNB-19 > 100 µM | HOP-62 > 100 µM | SK-OV-3 > 100 µM | MCF7 > 100 µM | K562 > 100 µM | OVCAR-3 > 100 µM | RPMI-8226 > 100 µM | NCI-H226 > 100 µM | NCI/ADR-RES > 100 µM | 786-0 > 100 µM | M14 > 100 µM | EKVX > 100 µM | OVCAR-5 > 100 µM | MOLT-4 > 100 µM

CCCNC(=O)CCC(C)C1CCC2C3C(C[C@H](OC(C)=O)[C@]12C)[C@@]1(C)CCC2(C[C@H]1C[C@H]3OC(C)=O)OOC1(CC[C@]3(C)C4C[C@H](OC(C)=O)[C@]5(C)C(C(C)CCC(=O)NCCC)CCC5C4[C@H](OC(C)=O)C[C@@H]3C1)OO2 (stereo not given in full)
inactive: SK-MEL-5 36.8 µM | KM12 > 100 µM | A549 > 100 µM | U-251 > 100 µM | SNB-19 > 100 µM | HOP-62 20.8 µM | RXF 393 > 100 µM | SK-OV-3 55.5 µM | MCF7 > 100 µM | K562 > 100 µM | OVCAR-3 > 100 µM | RPMI-8226 > 100 µM | NCI-H226 20.8 µM | NCI/ADR-RES > 100 µM | 786-0 > 100 µM | M14 25.6 µM | EKVX 57 µM | OVCAR-5 46.5 µM | MOLT-4 > 100 µM

CN1CCN(Cc2nc3c(s2)CCc2sccc2-3)CC1
inactive: SK-MEL-5 36.4 µM | KM12 > 100 µM | A549 > 100 µM | U-251 > 100 µM | SNB-19 74.8 µM | HOP-62 > 100 µM | RXF 393 75.5 µM | SK-OV-3 > 100 µM | MCF7 79.8 µM | K562 89.3 µM | OVCAR-3 > 100 µM | RPMI-8226 > 100 µM | NCI-H226 > 100 µM | NCI/ADR-RES > 100 µM | 786-0 95.3 µM | M14 28.4 µM | EKVX > 100 µM | OVCAR-5 > 100 µM | MOLT-4 77.8 µM

Cc1c(C)c2c(c(N)c1C#N)C(=O)N(OS(=O)(=O)c1ccccc1)C2=O
inactive: SK-MEL-5 44.9 µM | KM12 64.9 µM | A549 15.6 µM | U-251 20.5 µM | SNB-19 > 100 µM | RXF 393 15.2 µM | MCF7 38 µM | K562 16.7 µM | OVCAR-3 22.2 µM | RPMI-8226 15.1 µM | NCI-H226 18.5 µM | NCI/ADR-RES 22.6 µM | 786-0 16.4 µM | M14 19.5 µM | EKVX 18.9 µM | OVCAR-5 > 100 µM | MOLT-4 21.4 µM | SF-539 16.6 µM

CCOC(=O)c1cc2c3c(c(C(C)=O)c(O)c2[nH]1)N(CC(C)CC)CC3 (stereo not given)
inactive: KM12 56.4 µM | A549 62.8 µM | U-251 78.2 µM | SNB-19 92 µM | RXF 393 34.6 µM | SK-OV-3 60.8 µM | MCF7 > 100 µM | K562 32.5 µM | RPMI-8226 36.1 µM | NCI-H226 41.5 µM | NCI/ADR-RES 29.6 µM | 786-0 49.2 µM | EKVX 38.9 µM | MOLT-4 26.3 µM | SF-539 70 µM

C/C(=N/NC(=O)c1ccccc1Nc1ccccc1C(=O)N/N=C(\C)c1ccc(C)cc1)c1ccc(C)cc1
inactive: SK-MEL-5 42.1 µM | KM12 74.8 µM | A549 46.3 µM | U-251 > 100 µM | SNB-19 > 100 µM | HOP-62 11.4 µM | RXF 393 12.2 µM | SK-OV-3 > 100 µM | MCF7 14.6 µM | K562 57.4 µM | OVCAR-3 4.62 µM | RPMI-8226 > 100 µM | NCI-H226 > 100 µM | NCI/ADR-RES > 100 µM | 786-0 > 100 µM | M14 47 µM | EKVX > 100 µM | OVCAR-5 > 100 µM | MOLT-4 37.8 µM

c1ccc(N/N=C2\CC(c3ccccc3)Oc3ccccc32)cc1 (stereo not given)
inactive: SK-MEL-5 40.8 µM | KM12 32.4 µM | A549 53.7 µM | U-251 33.8 µM | SNB-19 35.9 µM | HOP-62 61 µM | RXF 393 31.6 µM | SK-OV-3 > 100 µM | MCF7 24 µM | K562 41.9 µM | OVCAR-3 34.5 µM | NCI-H226 > 100 µM | NCI/ADR-RES 43.1 µM | 786-0 24.3 µM | M14 42.6 µM | EKVX 21.9 µM | OVCAR-5 46.1 µM | MOLT-4 28.4 µM | SF-539 37.6 µM

N#Cc1c2ccc([N+](=O)[O-])cc2c(=O)n2c1[nH]c1ccc(C(F)(F)F)cc12
inactive: SK-MEL-5 29.4 µM | KM12 24.8 µM | A549 > 55.8 µM | U-251 26.4 µM | SNB-19 10.8 µM | HOP-62 26.9 µM | SK-OV-3 41.9 µM | MCF7 63.4 µM | K562 12.5 µM | OVCAR-3 18.2 µM | RPMI-8226 4.48 µM | NCI-H226 14.3 µM | NCI/ADR-RES 23.2 µM | 786-0 40.6 µM | M14 24.5 µM | EKVX > 100 µM | OVCAR-5 14.3 µM | MOLT-4 14.5 µM | SF-539 > 100 µM

C=C=C(C)C(=O)N(C(C)C)C(C)C
inactive: SK-MEL-5 > 100 µM | A549 > 100 µM | U-251 > 100 µM | SNB-19 > 100 µM | HOP-62 > 100 µM | SK-OV-3 > 100 µM | MCF7 > 100 µM | K562 > 100 µM | OVCAR-3 > 100 µM | RPMI-8226 > 100 µM | NCI-H226 > 100 µM | NCI/ADR-RES > 100 µM | 786-0 > 100 µM | M14 > 100 µM | EKVX > 100 µM | OVCAR-5 > 100 µM | MOLT-4 > 100 µM

From ChEMBL document CHEMBL1201862, “PubChem BioAssay data set” (2004)
